Patent publication US12090146B2, “Substituted-pyridinyl compounds and uses thereof” (Bionomics Limited, priority 2018, dated 2024)
Blank lines part the entries; values can stand above or below the compound they belong to.

Molecular target: T1, hKv3.1 (Homo sapiens, UniProt P48547)
T1 construct: expressed in transfected cells
T1 sequence (P48547 1-511): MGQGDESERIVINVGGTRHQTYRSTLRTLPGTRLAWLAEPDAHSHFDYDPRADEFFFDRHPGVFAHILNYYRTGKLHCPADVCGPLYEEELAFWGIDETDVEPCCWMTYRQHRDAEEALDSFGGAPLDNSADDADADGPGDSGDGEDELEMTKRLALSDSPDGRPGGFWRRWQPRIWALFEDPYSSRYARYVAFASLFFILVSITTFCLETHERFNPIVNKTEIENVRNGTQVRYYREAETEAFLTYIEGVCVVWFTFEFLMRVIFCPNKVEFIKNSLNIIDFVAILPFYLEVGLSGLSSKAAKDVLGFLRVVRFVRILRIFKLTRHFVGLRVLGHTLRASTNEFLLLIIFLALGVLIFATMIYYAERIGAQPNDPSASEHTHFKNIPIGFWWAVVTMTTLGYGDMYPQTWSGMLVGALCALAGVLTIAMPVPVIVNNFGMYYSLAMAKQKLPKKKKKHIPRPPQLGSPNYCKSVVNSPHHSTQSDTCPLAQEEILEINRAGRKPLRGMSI
Test: Automated patch clamp (Patchliner) whole-cell electrophysiology, Kv3.1
Assay type: cell-based
Details: 10 μM compound, CHO-K1 cells stably expressing hKv3.1; for Kv3.1 Activity at 10 μM Potentiation (%): % potentiation of peak current at −10 mV voltage step vs vehicle; for Kv3.1 Activity at 10 μM Voltage Shift (mV): voltage shift of the IV curve at V1/2
Experimental: hKv3.1, hKv3.2, hKv3.3, and hKv3.4 were stably expressed in CHO-K1 (Chinese hamster ovary) cells and kept under constant antibiotic selection. For in vitro assays, cells were maintained in appropriate growth medium at 37° C. and 5% CO2 in a humidified incubator.
hKv3.X expressing cells were plated in T-25 flasks for 3-4 days at 37° C. (no selection antibiotic) prior to use and grown to 80% confluence. Cells were washed twice with PBS (calcium and magnesium free) and detached with a 5-minute treatment at 37° C. with 2-3 mls of Accutase®. Cells were collected, and flask was washed in CHO-SFM II media (Life Technologies Gibco), centrifuged for 2 minutes at ˜110×g and resuspended to obtain a single cell suspension of ˜2-3×10^6 cells/ml.
The intracellular solution contained the following (in mM): KCl 50, NaCl 10, KF 60, EGTA 20, HEPES 10, adjusted to pH 7.2 with KOH and an osmolarity of 285 mOsmol. Seal enhancer was purchased from Nanion (80 mM NaCl, 3 mM KCl, 10 mM MgCl2, 35 mM CaCl2), 10 mM HEPES, pH7.4, 298 mOsmol. The external solution contained (in mM): NaCl 140, KCl 4, CaCl2) 2, MgCl2 1, HEPES 10, Glucose 5, adjusted to pH7.4 and an osmolarity of 298 mOsmol.
All compounds were initially tested at 10 uM at a final DMSO concentration of 0.33%. Compounds were dissolved in dimethylsulfoxide (DMSO) at a stock concentration of 30 mM. The compound was further diluted 1:10 to give a stock concentration of 3 mM in DMSO. The final assay solution was diluted 1:300 in External solution to give a final concentration of 10 uM. For the DMSO Control Buffer 30 uL of DMSO was added to 10 mL buffer.
All electrophysiological recordings were performed at ambient temperature (21-23° C.) using automated patch clamp (Patchliner, Nanion Technologies GmbH) in the whole-cell configuration.
Cell membrane potentials were held at −80 mV, and currents were evoked by voltage steps (1000 ms duration) from −60 to +60 mV in 10 mV increments. This was performed first with vehicle (0.33% DMSO) and then with 10 uM compound, after a 3-minute incubation period. Data was taken from 4 cells per assay.
The recordings were analysed and selected using peak current amplitude (>100 pA at the −10 mV voltage step) in the absence of compound to eliminate unsuitable cells from analysis. Peak current amplitude was measured and recorded for each voltage step and data was normalised to the maximum current at +60 mV. The normalised Kv3.x currents following addition of the compound were then compared with the currents recorded prior to compound addition (vehicle control). Positive modulation was determined as % potentiation at the voltage step of −10 mV=[current (cmpd)/current (veh)]*100−100. % potentiation ≥50% was considered acceptable. In addition, voltage shift of the IV curve at V1/2 was measured. V1/2 of ≥−5 mV was also considered acceptable. IV curves were plotted in GraphPad Prism (software version 6.0) and fitted with a Boltzmann equation, where V1/2 is the voltage at half-maximal activation.

Compound: CC[C@@]1(C)NC(=O)N(c2ccnc(Oc3ccc(C)c(F)c3)c2)C1=O [Example 12, (5R)-5-ethyl-3-[2-(3-fluoro-4-methyl-phenoxy)-4-pyridyl]-5-methyl-imidazolidine-2,4-dione]
Kv3.1 Activity at 10 μM Potentiation (%): 6%
Kv3.1 Activity at 10 μM Voltage Shift (mV): −3.31 mV

Compound: CC[C@@]1(C)NC(=O)N(c2ccnc(Oc3ccc(Cl)c(OC)c3)c2)C1=O [Example 15, (5R)-5-ethyl-3-[2-(3-methoxy-4-chloro-phenoxy)-4-pyridyl]-5-methyl-imidazolidine-2,4-dione]
Kv3.1 Activity at 10 μM Potentiation (%): 3%
Kv3.1 Activity at 10 μM Voltage Shift (mV): −0.9 mV

Compound: CC[C@@]1(C)NC(=O)N(c2ccnc(Oc3ccc(C)c(C)c3)c2)C1=O [Example 17, (5R)-3-[2-(3,4-dimethylphenoxy)-4-pyridyl]-5-ethyl-5-methyl-imidazolidine-2,4-dione]
Kv3.1 Activity at 10 μM Potentiation (%): 28%
Kv3.1 Activity at 10 μM Voltage Shift (mV): −3.12 mV

Compound: CC[C@@]1(C)NC(=O)N(c2ccnc(Oc3ccc4c(c3)OCCC4)c2)C1=O [Example 19, (5R)-3-(2-chroman-7-yloxy-4-pyridyl)-5-ethyl-5-methyl-imidazolidine-2,4-dione]
Kv3.1 Activity at 10 μM Potentiation (%): 35%
Kv3.1 Activity at 10 μM Voltage Shift (mV): −0.4 mV

Compound: CC[C@H]1NC(=O)N(c2ccnc(Oc3ccc(C)c(OC)c3)c2)C1=O [Example 23, (5R)-5-ethyl-3-[2-(3-methoxy-4-methyl-phenoxy)-4-pyridyl]imidazolidine-2,4-dione]
Kv3.1 Activity at 10 μM Potentiation (%): 30%
Kv3.1 Activity at 10 μM Voltage Shift (mV): 0.77 mV

Compound: Cc1ccc(Oc2cc(N3C(=O)NC4(CCCCC4)C3=O)ccn2)cc1OC(F)(F)F [Example 29, 3-[2-[4-methyl-3-(trifluoromethoxy)phenoxy]-4-pyridyl]-1,3-diazaspiro[4.5]decane-2,4-dione]
Kv3.1 Activity at 10 μM Potentiation (%): 12%
Kv3.1 Activity at 10 μM Voltage Shift (mV): −0.63 mV

Compound: CC[C@H]1NC(=O)N(c2cccc(Oc3ccc(OC)c(C)c3)n2)C1=O [Example 51, (5R)-5-ethyl-3-[6-(4-methoxy-3-methyl-phenoxy)-2-pyridyl]imidazolidine-2,4-dione]
Kv3.1 Activity at 10 μM Potentiation (%): 7%
Kv3.1 Activity at 10 μM Voltage Shift (mV): −1.99 mV

Compound: CC[C@H]1NC(=O)N(c2cccc(Oc3cc(C)cc(OC)c3)n2)C1=O [Example 54, (5R)-5-ethyl-3-[6-(5-methoxy-3-methyl-phenoxy)-2-pyridyl]imidazolidine-2,4-dione]
Kv3.1 Activity at 10 μM Potentiation (%): 11%
Kv3.1 Activity at 10 μM Voltage Shift (mV): −1.69 mV

Compound: CC[C@H]1NC(=O)N(c2cccc(Oc3cccc(OC)c3)n2)C1=O [Example 55, (5R)-5-ethyl-3-[6-(3-methoxy-phenoxy)-2-pyridyl]imidazolidine-2,4-dione]
Kv3.1 Activity at 10 μM Potentiation (%): 11%
Kv3.1 Activity at 10 μM Voltage Shift (mV): −1.41 mV

Compound: CC[C@@]1(C)NC(=O)N(c2cccc(Oc3ccc4c(c3)CCC4)n2)C1=O [Example 61, (5R)-5-ethyl-3-(6-indan-5-yloxy-2-pyridyl)-5-methyl-imidazolidine-2,4-dione]
Kv3.1 Activity at 10 μM Potentiation (%): 46%
Kv3.1 Activity at 10 μM Voltage Shift (mV): −3.55 mV

Compound: CC[C@@]1(C)NC(=O)N(c2cccc(Oc3ccc(Cl)c(OC)c3)n2)C1=O [Example 62, (5R)-3-[6-(4-chloro-3-methoxy-phenoxy)-2-pyridyl]-5-ethyl-5-methyl-imidazolidine-2,4-dione]
Kv3.1 Activity at 10 μM Potentiation (%): 57%
Kv3.1 Activity at 10 μM Voltage Shift (mV): −4.05 mV

Compound: CC[C@@]1(C)NC(=O)N(c2cccc(Oc3ccc4c(c3)OCCC4)n2)C1=O [Example 64, (5R)-3-(6-chroman-7-yloxy-2-pyridyl)-5-ethyl-5-methyl-imidazolidine-2,4-dione]
Kv3.1 Activity at 10 μM Potentiation (%): 15%
Kv3.1 Activity at 10 μM Voltage Shift (mV): −2.57 mV

Now from value to compound:

Kv3.1 Activity at 10 μM Potentiation (%): 19%
Kv3.1 Activity at 10 μM Voltage Shift (mV): −2.06 mV
Compound: COc1cc(Oc2cc(N3C(=O)NC4(CCOCC4)C3=O)ccn2)ccc1C [Example 32, 3-[2-(3-methoxy-4-methyl-phenoxy)-4-pyridyl]-8-oxa-1,3-diazaspiro[4.5]decane-2,4-dione]

Kv3.1 Activity at 10 μM Potentiation (%): 48%
Kv3.1 Activity at 10 μM Voltage Shift (mV): −2.8 mV
Compound: CC[C@H]1NC(=O)N(c2cncc(Oc3ccc(C)c(OC)c3)c2)C1=O [Example 38, (5R)-5-ethyl-3-[5-(3-methoxy-4-methyl-phenoxy)-3-pyridyl]imidazolidine-2,4-dione]

Kv3.1 Activity at 10 μM Potentiation (%): 78%
Kv3.1 Activity at 10 μM Voltage Shift (mV): −4.77 mV
Compound: CC[C@@]1(C)NC(=O)N(c2cncc(Oc3ccc(C)c(OC)c3)c2)C1=O [Example 40, (5R)-5-ethyl-3-[5-(3-methoxy-4-methyl-phenoxy)-3-pyridyl]-5-methyl-imidazolidine-2,4-dione]

Kv3.1 Activity at 10 μM Potentiation (%): 25%
Kv3.1 Activity at 10 μM Voltage Shift (mV): −3.07 mV
Compound: CC[C@H]1NC(=O)N(c2cc(Oc3ccc4ccccc4c3)ccn2)C1=O [Example 42, (5R)-5-ethyl-3-[4-(2-naphthyloxy)-2-pyridyl]imidazolidine-2,4-dione]

Kv3.1 Activity at 10 μM Potentiation (%): 29%
Kv3.1 Activity at 10 μM Voltage Shift (mV): −1.49 mV
Compound: CC(C)c1cc(Oc2ccnc(N3C(=O)NC(C)(C)C3=O)c2)ccc1C#N [Example 47, 4-[[2-(4,4-dimethyl-2,5-dioxo-imidazolidin-1-yl)-4-pyridyl]oxy]-2-isopropyl-benzonitrile]

Kv3.1 Activity at 10 μM Potentiation (%): 14%
Kv3.1 Activity at 10 μM Voltage Shift (mV): −3.5 mV
Compound: CC[C@H]1NC(=O)N(c2cccc(Oc3cc(OC)ccc3C)n2)C1=O [Example 52, (5R)-5-ethyl-3-[6-(5-methoxy-2-methyl-phenoxy)-2-pyridyl]imidazolidine-2,4-dione]

Kv3.1 Activity at 10 μM Potentiation (%): 19%
Kv3.1 Activity at 10 μM Voltage Shift (mV): −2.7 mV
Compound: CC[C@H]1NC(=O)N(c2cccc(Oc3cccc(C)c3OC)n2)C1=O [Example 56, (5R)-5-ethyl-3-[6-(2-methoxy-3-methyl-phenoxy)-2-pyridyl]imidazolidine-2,4-dione]

Kv3.1 Activity at 10 μM Potentiation (%): −23%
Kv3.1 Activity at 10 μM Voltage Shift (mV): 2.18 mV
Compound: CC[C@H]1NC(=O)N(c2cccc(Oc3ccc(C#N)cc3C(C)(C)C)n2)C1=O [Example 57, 3-tert-butyl-4-[[6-[(4R)-4-ethyl-2,5-dioxo-imidazolidin-1-yl]-2-pyridyl]oxy]benzonitrile]

Kv3.1 Activity at 10 μM Potentiation (%): 10%
Kv3.1 Activity at 10 μM Voltage Shift (mV): −1.95 mV
Compound: CC[C@@]1(C)NC(=O)N(c2cccc(Oc3ccc(F)c(OC)c3)n2)C1=O [Example 59, (5R)-5-ethyl-3-[6-(4-fluoro-3-methoxy-phenoxy)-2-pyridyl]-5-methyl-imidazolidine-2,4-dione]

Kv3.1 Activity at 10 μM Potentiation (%): 51%
Kv3.1 Activity at 10 μM Voltage Shift (mV): −3.45 mV
Compound: CC[C@@]1(C)NC(=O)N(c2cccc(Oc3ccc(F)c(C)c3)n2)C1=O [Example 60, (5R)-5-ethyl-3-[6-(4-fluoro-3-methyl-phenoxy)-2-pyridyl]-5-methyl-imidazolidine-2,4-dione]

Kv3.1 Activity at 10 μM Potentiation (%): 22%
Kv3.1 Activity at 10 μM Voltage Shift (mV): −3.79 mV
Compound: CC[C@@]1(C)NC(=O)N(c2cccc(Oc3ccc(C)c(C)c3)n2)C1=O [Example 65, (5R)-3-[6-(3,4-dimethylphenoxy)-2-pyridyl]-5-ethyl-5-methyl-imidazolidine-2,4-dione]
